Key:
Details in all cases: compound 1.0 µM
[1] = target: ABL1 (human) (UniProt P00519)
[2] = target: AKT1 (human) (UniProt P31749)
[3] = target: AURKA (human) (UniProt O14965)
[4] = target: CDK2 (human) (UniProt P24941)
[5] = target: CHEK1 (human) (UniProt O14757)
[6] = target: CSNK2A1 (human) (UniProt P68400)
[7] = target: FGFR1 (human) (UniProt P11362)
[8] = target: GSK3B (human) (UniProt P49841)
[9] = target: IKBKB (human) (UniProt O14920)
[10] = target: IKBKE (human) (UniProt Q14164)
[11] = target: INSR (human) (UniProt P06213)
Chain of INSR (human) (P06213 whole entry, looked up): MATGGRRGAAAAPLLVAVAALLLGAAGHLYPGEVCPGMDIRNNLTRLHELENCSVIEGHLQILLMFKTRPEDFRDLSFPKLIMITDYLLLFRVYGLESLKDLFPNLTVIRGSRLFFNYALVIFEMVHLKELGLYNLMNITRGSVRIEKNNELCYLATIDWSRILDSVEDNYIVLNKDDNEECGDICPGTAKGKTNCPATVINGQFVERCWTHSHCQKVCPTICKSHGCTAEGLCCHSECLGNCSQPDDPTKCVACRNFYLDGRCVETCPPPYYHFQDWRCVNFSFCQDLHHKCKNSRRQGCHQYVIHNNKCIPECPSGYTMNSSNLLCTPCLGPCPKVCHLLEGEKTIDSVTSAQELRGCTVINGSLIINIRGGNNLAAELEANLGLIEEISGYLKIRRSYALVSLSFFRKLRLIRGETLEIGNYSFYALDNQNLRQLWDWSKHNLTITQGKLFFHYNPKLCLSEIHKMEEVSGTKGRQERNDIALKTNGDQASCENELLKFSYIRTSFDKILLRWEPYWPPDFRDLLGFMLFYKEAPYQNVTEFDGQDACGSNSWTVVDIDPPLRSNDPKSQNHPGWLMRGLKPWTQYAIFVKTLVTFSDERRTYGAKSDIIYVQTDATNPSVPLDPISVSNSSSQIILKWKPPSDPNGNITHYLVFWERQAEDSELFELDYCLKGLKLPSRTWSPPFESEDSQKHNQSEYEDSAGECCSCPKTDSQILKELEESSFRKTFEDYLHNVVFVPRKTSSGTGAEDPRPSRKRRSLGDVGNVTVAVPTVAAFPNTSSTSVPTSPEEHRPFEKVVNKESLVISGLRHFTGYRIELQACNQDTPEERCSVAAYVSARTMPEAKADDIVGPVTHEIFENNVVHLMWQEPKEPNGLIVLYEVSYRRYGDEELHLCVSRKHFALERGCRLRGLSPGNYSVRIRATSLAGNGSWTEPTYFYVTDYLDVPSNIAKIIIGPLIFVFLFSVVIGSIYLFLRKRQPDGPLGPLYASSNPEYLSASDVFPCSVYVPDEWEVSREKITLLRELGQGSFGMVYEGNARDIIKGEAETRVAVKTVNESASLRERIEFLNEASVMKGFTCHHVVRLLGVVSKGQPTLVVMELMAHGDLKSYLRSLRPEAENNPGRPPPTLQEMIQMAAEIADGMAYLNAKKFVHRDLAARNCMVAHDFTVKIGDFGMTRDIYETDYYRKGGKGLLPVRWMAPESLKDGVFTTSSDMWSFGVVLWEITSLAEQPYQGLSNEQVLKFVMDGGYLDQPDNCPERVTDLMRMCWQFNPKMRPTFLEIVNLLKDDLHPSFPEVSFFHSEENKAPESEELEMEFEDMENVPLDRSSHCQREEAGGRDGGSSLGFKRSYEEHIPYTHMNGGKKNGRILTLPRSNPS

[12] = target: KDR (human) (UniProt P35968)
[13] = target: LCK (human) (UniProt P06239)
[14] = target: MAPK1 (human) (UniProt P28482)
[15] = target: MAPK14 (human) (UniProt Q16539)
[16] = target: MAPKAPK2 (human) (UniProt P49137)
[17] = target: MET (human) (UniProt P08581)
[18] = target: MST4 (human) (UniProt Q9P289)
Chain of MST4 (human) (Q9P289 whole entry, looked up): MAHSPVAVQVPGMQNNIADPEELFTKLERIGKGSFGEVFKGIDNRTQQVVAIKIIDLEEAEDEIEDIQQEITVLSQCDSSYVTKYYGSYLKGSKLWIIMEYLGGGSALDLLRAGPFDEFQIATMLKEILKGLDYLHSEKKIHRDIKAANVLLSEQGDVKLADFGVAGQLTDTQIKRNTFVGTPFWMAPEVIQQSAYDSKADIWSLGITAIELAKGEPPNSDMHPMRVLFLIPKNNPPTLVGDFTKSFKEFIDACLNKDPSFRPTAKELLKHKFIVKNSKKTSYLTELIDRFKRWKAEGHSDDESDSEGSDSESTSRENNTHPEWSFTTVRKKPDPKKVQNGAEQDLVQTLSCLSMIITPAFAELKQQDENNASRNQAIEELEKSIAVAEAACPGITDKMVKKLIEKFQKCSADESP

[19] = target: NTRK1 (human) (UniProt P04629)
[20] = target: PDPK1 (human) (UniProt O15530)
[21] = target: PRKCB1 (human) (UniProt P05771)
[22] = target: ROCK1 (human) (UniProt Q13464)
Chain of ROCK1 (human) (Q13464 whole entry, looked up): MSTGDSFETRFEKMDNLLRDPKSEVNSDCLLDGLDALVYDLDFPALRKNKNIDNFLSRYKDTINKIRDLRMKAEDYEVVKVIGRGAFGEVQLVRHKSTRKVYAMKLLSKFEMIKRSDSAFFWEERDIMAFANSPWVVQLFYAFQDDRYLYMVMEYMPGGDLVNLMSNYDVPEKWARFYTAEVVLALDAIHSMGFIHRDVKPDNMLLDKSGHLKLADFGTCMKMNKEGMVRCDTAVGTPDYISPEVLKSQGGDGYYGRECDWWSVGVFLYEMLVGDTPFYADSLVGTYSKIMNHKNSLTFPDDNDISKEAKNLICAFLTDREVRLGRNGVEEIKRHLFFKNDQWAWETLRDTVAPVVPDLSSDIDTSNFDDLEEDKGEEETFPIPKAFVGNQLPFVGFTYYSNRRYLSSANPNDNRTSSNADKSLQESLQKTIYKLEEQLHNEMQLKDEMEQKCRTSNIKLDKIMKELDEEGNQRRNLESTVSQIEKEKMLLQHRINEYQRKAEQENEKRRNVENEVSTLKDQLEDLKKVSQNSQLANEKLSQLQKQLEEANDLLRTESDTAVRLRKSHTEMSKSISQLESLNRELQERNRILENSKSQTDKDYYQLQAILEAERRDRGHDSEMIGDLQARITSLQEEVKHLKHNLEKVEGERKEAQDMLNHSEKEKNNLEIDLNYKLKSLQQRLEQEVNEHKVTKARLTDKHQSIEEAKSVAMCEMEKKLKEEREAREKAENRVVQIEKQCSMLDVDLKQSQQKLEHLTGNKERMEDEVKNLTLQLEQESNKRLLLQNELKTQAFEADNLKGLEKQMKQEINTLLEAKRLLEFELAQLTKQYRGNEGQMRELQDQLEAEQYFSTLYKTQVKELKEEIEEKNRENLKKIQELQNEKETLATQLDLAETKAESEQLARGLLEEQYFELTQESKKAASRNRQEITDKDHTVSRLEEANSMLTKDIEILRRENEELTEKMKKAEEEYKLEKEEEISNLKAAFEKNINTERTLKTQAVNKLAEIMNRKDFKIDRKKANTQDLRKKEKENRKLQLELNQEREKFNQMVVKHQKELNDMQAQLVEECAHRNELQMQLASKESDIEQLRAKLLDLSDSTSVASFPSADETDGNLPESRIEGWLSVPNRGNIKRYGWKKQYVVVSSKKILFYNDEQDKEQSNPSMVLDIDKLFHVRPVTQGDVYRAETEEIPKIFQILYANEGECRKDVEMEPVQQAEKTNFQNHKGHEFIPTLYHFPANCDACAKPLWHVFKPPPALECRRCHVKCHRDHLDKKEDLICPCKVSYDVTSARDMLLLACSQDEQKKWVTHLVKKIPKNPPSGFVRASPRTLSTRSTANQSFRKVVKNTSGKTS

[23] = target: SRC (human) (UniProt P12931)
[24] = target: TAOK3 (human) (UniProt Q9H2K8)
[25] = target: PAK4 (human) (UniProt O96013)
[26] = target: PRKACA (human) (UniProt P17612)
[27] = target: EGFR (human) (UniProt P00533)

Chain of ABL1 (human) (P00519 whole entry, looked up): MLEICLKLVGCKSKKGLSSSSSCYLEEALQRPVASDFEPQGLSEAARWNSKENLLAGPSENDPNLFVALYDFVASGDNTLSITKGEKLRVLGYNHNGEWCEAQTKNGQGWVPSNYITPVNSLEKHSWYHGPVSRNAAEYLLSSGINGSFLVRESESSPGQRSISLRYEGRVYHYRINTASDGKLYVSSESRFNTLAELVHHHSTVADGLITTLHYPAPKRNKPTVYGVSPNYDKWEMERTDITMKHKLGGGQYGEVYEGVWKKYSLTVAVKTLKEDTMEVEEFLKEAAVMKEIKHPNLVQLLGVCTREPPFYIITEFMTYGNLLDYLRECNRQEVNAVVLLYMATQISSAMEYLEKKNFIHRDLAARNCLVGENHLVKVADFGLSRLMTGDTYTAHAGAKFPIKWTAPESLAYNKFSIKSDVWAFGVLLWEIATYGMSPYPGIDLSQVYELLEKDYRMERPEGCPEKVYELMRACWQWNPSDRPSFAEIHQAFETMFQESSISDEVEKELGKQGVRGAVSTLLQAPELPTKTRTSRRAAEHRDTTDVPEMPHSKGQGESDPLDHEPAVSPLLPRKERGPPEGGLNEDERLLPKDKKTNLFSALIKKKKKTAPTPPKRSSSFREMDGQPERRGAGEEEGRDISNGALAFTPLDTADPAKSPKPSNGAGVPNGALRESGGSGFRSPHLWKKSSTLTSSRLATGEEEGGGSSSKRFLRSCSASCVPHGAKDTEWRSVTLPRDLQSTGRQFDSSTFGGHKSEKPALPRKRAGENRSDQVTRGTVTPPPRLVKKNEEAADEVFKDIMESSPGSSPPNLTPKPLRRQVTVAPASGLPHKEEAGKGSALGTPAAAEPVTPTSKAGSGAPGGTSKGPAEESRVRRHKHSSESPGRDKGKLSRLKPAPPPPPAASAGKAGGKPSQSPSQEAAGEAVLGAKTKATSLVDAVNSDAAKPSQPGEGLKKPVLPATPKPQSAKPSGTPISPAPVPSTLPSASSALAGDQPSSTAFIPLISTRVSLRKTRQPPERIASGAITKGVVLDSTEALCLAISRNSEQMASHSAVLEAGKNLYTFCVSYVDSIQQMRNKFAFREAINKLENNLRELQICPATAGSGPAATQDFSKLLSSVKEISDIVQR
Chain of AKT1 (human) (P31749 whole entry, looked up): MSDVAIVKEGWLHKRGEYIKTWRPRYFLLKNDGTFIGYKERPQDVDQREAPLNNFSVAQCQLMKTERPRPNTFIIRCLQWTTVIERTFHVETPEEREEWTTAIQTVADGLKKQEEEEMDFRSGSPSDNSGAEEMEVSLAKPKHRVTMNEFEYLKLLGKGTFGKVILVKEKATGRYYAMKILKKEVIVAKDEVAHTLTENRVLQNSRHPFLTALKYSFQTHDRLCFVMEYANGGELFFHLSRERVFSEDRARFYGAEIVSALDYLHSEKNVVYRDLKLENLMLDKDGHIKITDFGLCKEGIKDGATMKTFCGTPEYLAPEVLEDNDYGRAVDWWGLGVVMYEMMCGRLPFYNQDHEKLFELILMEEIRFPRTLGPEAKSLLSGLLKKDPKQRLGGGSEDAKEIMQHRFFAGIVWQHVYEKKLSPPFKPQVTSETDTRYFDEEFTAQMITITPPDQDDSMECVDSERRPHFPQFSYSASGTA

SMILES | inhibition [1] | inhibition [2] | inhibition [3] | inhibition [4] | inhibition [5] | inhibition [6] | inhibition [7] | inhibition [8] | inhibition [9] | inhibition [10] | inhibition [12] | inhibition [14] | inhibition [16] | inhibition [17] | inhibition [18] | inhibition [20] | inhibition [21] | inhibition [22] | inhibition [23] | inhibition [24] | further results
O=S(=O)(c1cccc2cnccc12)N1CCCNCC1 | 0% | 16% | 4.4% | 0% | 0% | 0% | 0% | 0% | 0% | 0% | 4% | 1.5% | 0% | 0% | 3.5% | 0% | 5.6% | 86.1% | 0.9% | 0% | inhibition [11]: 1.9%; inhibition [13]: 0%; inhibition [15]: 0.9%; inhibition [19]: 0.9%
O=C1NCCc2[nH]c(-c3ccnc(-c4ccccc4F)c3)cc21 | 0% | 3.5% | 0% | 7% | 1.8% | 20.5% | 0% | 3.4% | 0% | 0% | 11.9% | 11.7% | 73.7% | 30.4% | 10% | 0% | 0% | 5.4% | 9.9% | 33.8% | inhibition [13]: 0%; inhibition [15]: 6.7%; inhibition [25]: 4.1%; inhibition [26]: 4.3%
C#Cc1cccc(Nc2ncnc3cc(OCCOC)c(OCCOC)cc23)c1 | 80.6% | 11.1% | 39.1% | 0% | 0% | 0% | 0% | 13.6% | 6.5% | 6.5% | 63.6% | 2.3% | 0% | 19.4% | 18.7% | 0% | 27.9% | 0% | 36.7% | 0% | inhibition [11]: 3.4%; inhibition [15]: 0%; inhibition [19]: 18.5%; inhibition [25]: 5.7%; inhibition [26]: 0.1%
CS(=O)c1ccc(-c2nc(-c3ccc(F)cc3)c(-c3ccncc3)[nH]2)cc1 (stereo not given) | 3.15% | 0.56% | 0% | 0% | 0% | 0% | 0% | 52.6% | 0% | 0% | 13.5% | 11.7% | 0% | 0% | 0% | 0% | 23.6% | 4.88% | 16.6% | 15.7% | inhibition [11]: 0.995%; inhibition [13]: 7.1%; inhibition [19]: 4.44%; inhibition [25]: 6.86%; inhibition [26]: 18.4%

Second part, led by results:

inhibition [1] | inhibition [2] | inhibition [3] | inhibition [4] | inhibition [5] | inhibition [6] | inhibition [7] | inhibition [8] | inhibition [9] | inhibition [10] | inhibition [12] | inhibition [14] | inhibition [16] | inhibition [17] | inhibition [18] | inhibition [20] | inhibition [21] | inhibition [22] | inhibition [23] | inhibition [24] | SMILES | further results
0% | 0% | 0% | 0% | 0% | 0% | 0% | 0% | 0% | 0% | 0% | 0% | 0% | 0% | 0% | 0% | 0% | 0% | 0% | 0% | CS(=O)(=O)CCNCc1ccc(-c2ccc3ncnc(Nc4ccc(OCc5cccc(F)c5)c(Cl)c4)c3c2)o1 | inhibition [11]: 0%; inhibition [13]: 0%; inhibition [15]: 0%; inhibition [19]: 0%; inhibition [25]: 0%; inhibition [26]: 0%
82.9% | 10.6% | 8.8% | 2.5% | 0% | 1% | 50.1% | 2.8% | 4.4% | 3.9% | 70.6% | 6.6% | 0.2% | 11.3% | 14.8% | 0% | 17.5% | 2.8% | 93.4% | 17.4% | Cc1ccc(-c2nn(C(C)(C)C)c3ncnc(N)c23)cc1 | inhibition [13]: 94.5%; inhibition [15]: 33.7%; inhibition [19]: 49.8%; inhibition [25]: 5.3%; inhibition [26]: 29.2%
8.86% | 0% | 0% | – | 0% | 1.93% | 0% | 0% | 0% | 0.63% | 1.35% | 0% | 0% | 0% | 0% | 0% | 8.46% | 0% | 4.9% | 3.7% | CC[C@@H](CO)Nc1nc(NCc2ccccc2)c2ncn(C(C)C)c2n1 | inhibition [27]: 5.07%; inhibition [11]: 1.28%; inhibition [13]: 0%; inhibition [15]: 5.04%; inhibition [19]: 3.46%; inhibition [25]: 2.92%; inhibition [26]: 5.58%
